Measured values taken from ChEMBL document CHEMBL3045680, “Synthesis and Herbicidal Activity of 4-Thiazolone Derivatives and Their Effect on Plant Secretory Pathway” (J Pestic Sci, 2003).
Activity calls are given as the source filed them. No cut-off for these calls is given here.

Experiments:
Echinochloa oryzicola [1] = experiment: Pre-emergence herbicidal activity against Echinochloa oryzicola assessed as weed killing at 2 kg ai/ha measured 30 days after compound treatment under green house conditions; type: functional
[2] = tested on: Schoenoplectiella juncoides; experiment: Post-emergence herbicidal activity against Schoenoplectiella juncoides assessed as weed killing at 2 kg ai/ha measured 30 days after compound treatment under green house conditions; type: functional
[3] = tested on: Schoenoplectiella juncoides; experiment: Pre-emergence herbicidal activity against Schoenoplectiella juncoides assessed as weed killing at 2 kg ai/ha measured 30 days after compound treatment under green house conditions; type: functional
Echinochloa oryzicola [4] = experiment: Post-emergence herbicidal activity against Echinochloa oryzicola assessed as weed killing at 2 kg ai/ha measured 30 days after compound treatment under green house conditions; type: functional
Oryza sativa = experiment: Post-emergence phytotoxicity against Oryza sativa (rice) plants exposed to compound applied on surface of water 7 days after transplantation assessed as plant killing at 0.5 kg ai/ha measured 3 weeks after compound treatment under green house conditions; type: organism-based; conditions: other, 504 h
Echinochloa oryzicola [5] = experiment: Post-emergence herbicidal activity against Echinochloa oryzicola assessed as weed killing at 0.5 kg ai/ha measured 30 days after compound treatment under green house conditions; type: functional
Echinochloa oryzicola [6] = experiment: (§1) Induction of plant secretory pathway perturbations in Echinochloa oryzicola seedlings root tips area exposed to 10 uM compound 3 days after sowing assessed as induction of vesicles accumulation at plasma membrane-cell wall interface measured after 8 hr days post compound treatment by electron microscopy; type: functional, organism-based
Echinochloa oryzicola [7] = experiment: as §1, with “4” for “8”; type: functional, organism-based
Echinochloa oryzicola [8] = experiment: Inhibition of shoot growth of Echinochloa oryzicola seedlings exposed to 10 uM compound immediately after sowing measured after 2 days post compound treatment; type: functional, organism-based
[9] = tested on: Schoenoplectiella juncoides; experiment: Herbicidal activity against Schoenoplectiella juncoides assessed as compound application rate causing complete weed control measured 30 days after compound treatment under green house conditions; type: functional
Echinochloa oryzicola [10] = experiment: Inhibition of shoot growth of Echinochloa oryzicola seedlings exposed to 10 uM compound 3 days after sowing measured after 24 to 72 hr days post compound treatment; type: functional, organism-based
Echinochloa oryzicola [11] = experiment: Induction of plant secretory pathway perturbations in Echinochloa oryzicola seedlings exposed to 10 uM compound 3 days after sowing assessed as induction of cytological changes in root apical tip area measured after 4 to 8 hr days post compound treatment by electron microscopy; type: functional, organism-based
Echinochloa oryzicola [12] = experiment: Herbicidal activity against Echinochloa oryzicola assessed as compound application rate causing complete weed control measured 30 days after compound treatment under green house conditions; type: functional
Echinochloa oryzicola [13] = experiment: Induction of plant secretory pathway perturbations in Echinochloa oryzicola seedlings root tips area exposed to 10 uM compound 3 days after sowing assessed as induction of endoplasmic reticulum swellings measured after 4 hr days post compound treatment by electron microscopy; type: functional, organism-based
Rotala indica = experiment: Herbicidal activity against Rotala indica assessed as compound application rate causing complete weed control measured 30 days after compound treatment under green house conditions; type: functional
Echinochloa oryzicola [14] = experiment: Induction of plant secretory pathway perturbations in Echinochloa oryzicola seedlings exposed to 10 uM compound 3 days after sowing assessed as induction of morphological changes in root tip golgi apparatus measured after 4 hr days post compound treatment by electron microscopy; type: functional, organism-based
Echinochloa oryzicola [15] = experiment: Induction of plant secretory pathway perturbations in Echinochloa oryzicola seedlings root tips area exposed to 10 uM compound 3 days after sowing assessed as induction of obscuring of cell wall measured after 4 hr days post compound treatment by electron microscopy; type: functional, organism-based
Lindernia procumbens = experiment: Herbicidal activity against Lindernia procumbens assessed as compound application rate causing complete weed control measured 30 days after compound treatment under green house conditions; type: functional
Cyperus serotinus = experiment: Herbicidal activity against Cyperus serotinus assessed as compound application rate causing complete weed control measured 30 days after compound treatment under green house conditions; type: functional
Echinochloa oryzicola [16] = experiment: Induction of necrotic symptoms in root tip of Echinochloa oryzicola seedlings exposed to 10 uM compound measured after 24 to 72 hr days post compound treatment; type: functional, organism-based
Echinochloa oryzicola [17] = experiment: Induction of plant secretory pathway perturbations in Echinochloa oryzicola seedlings exposed to 10 uM compound 3 days after sowing assessed as induction of accumulation of dense vesicles around root tip golgi apparatus measured after 4 hr days post compound treatment by electron microscopy; type: functional, organism-based
Echinochloa oryzicola [18] = experiment: Inhibition of root growth of Echinochloa oryzicola seedlings exposed to 10 uM compound immediately after sowing measured after 3 days post compound treatment; type: functional, organism-based
Echinochloa oryzicola [19] = experiment: Inhibition of root growth of Echinochloa oryzicola seedlings exposed to 10 uM compound 3 days after sowing measured after 24 to 72 hr days post compound treatment; type: functional, organism-based
Echinochloa oryzicola [20] = experiment: Induction of plant secretory pathway perturbations in Echinochloa oryzicola seedlings root tips area exposed to 10 uM compound 3 days after sowing assessed as induction of curved cell wall membrane-cell wall interface measured after 4 hr days post compound treatment by electron microscopy; type: functional, organism-based
Echinochloa oryzicola [21] = experiment: Induction of plant secretory pathway perturbations in Echinochloa oryzicola seedlings root tips area exposed to 10 uM compound 3 days after sowing assessed as induction of low electron dense area at membrane-cell wall interface measured after 4 hr days post compound treatment by electron microscopy; type: functional, organism-based
Echinochloa oryzicola [22] = experiment: Induction of plant secretory pathway perturbations in Echinochloa oryzicola seedlings root tips area exposed to 10 uM compound 3 days after sowing assessed as induction of curved cell wall membrane-cell wall interface measured after 8 hr days post compound treatment by electron microscopy; type: functional, organism-based
Pontederia vaginalis = experiment: Herbicidal activity against Monochoria vaginalis assessed as compound application rate causing complete weed control measured 30 days after compound treatment under green house conditions; type: functional

How did the Activity (Echinochloa oryzicola [1]) turn out when `CN(C1=NC(=O)C(C)(C)S1)c1ccccc1` was run?
The Activity was 90%.

What about the Activity [2] of the same compound?
The Activity was 60%.

What about the Activity [3] of the same compound?
The Activity was 80%.

And the Activity (Echinochloa oryzicola [4])?
The Activity was 80%.

For `CCN(CC)C(=O)n1cnc(S(=O)(=O)c2c(C)cc(C)cc2C)n1` [CAFENSTROLE], which Activity (Oryza sativa) is on record?
The Activity was 20%.

And the Activity (Echinochloa oryzicola [5])?
Its Activity is 80%.

What does the source list for `CC1(C)SC(N2CCc3ccccc32)=NC1=O`?
Activity (Echinochloa oryzicola [1]): 80%; Activity [2]: 20%; Activity [3]: 80%; Activity (Echinochloa oryzicola [4]): 80%

For `CCC1(C)SC(N(C)c2ccccc2)=NC1=O` (stereo not given), which Activity (Echinochloa oryzicola [1]) is on record?
The Activity was 80%.

And the Activity [2]?
The Activity was 40%.

And the Activity [3]?
The Activity was 90%.

And the Activity (Echinochloa oryzicola [4])?
The Activity was 80%.

Which results are given for `CC1CCc2ccccc2N1C1=NC(=O)C(C)(C)S1` (stereo not given)?
Activity (Echinochloa oryzicola [1]): 90%; Activity [2]: 80%; Activity [3]: 90%; Activity (Echinochloa oryzicola [4]): 90%

With `CC1SC(N(C)c2ccccc2)=NC1=O` (stereo not given) as the compound, how does the Activity (Echinochloa oryzicola [1]) read?
The Activity was 20%.

What about the Activity [2] of the same compound?
The Activity was 20%.

And the Activity [3]?
The Activity was 20%.

And the Activity (Echinochloa oryzicola [4])?
The Activity was 20%.

`CC1COc2ccccc2N1C1=NC(=O)C(C)(CCCl)S1` (stereo not given) was tested. Which Activity (Echinochloa oryzicola [6]) did it give?
Its Activity is “Active”.

What about the Activity (Echinochloa oryzicola [7]) of the same compound?
Its Activity is “Active”.

What about the “growth inhibition (GI)” value (Echinochloa oryzicola [8]) of the same compound?
Its value is “Active”.

What about the Activity [9] of the same compound?
The Activity was 0.25 KgAi/ha.

And the Activity (Oryza sativa)?
The Activity was 0%.

What about the “growth inhibition (GI)” value (Echinochloa oryzicola [10]) of the same compound?
Its value is “inactive”.

What about the Activity (Echinochloa oryzicola [11]) of the same compound?
The Activity was “Active”.

What about the Activity (Echinochloa oryzicola [12]) of the same compound?
Its Activity is 0.25 KgAi/ha.

What about the Activity (Echinochloa oryzicola [13]) of the same compound?
The Activity was “Active”.

And the Activity (Rotala indica)?
Its Activity is 0.25 KgAi/ha.

And the Activity (Echinochloa oryzicola [14])?
The Activity was “Active”.

And the Activity (Echinochloa oryzicola [15])?
Its Activity is “Active”.

And the Activity (Lindernia procumbens)?
The Activity was 0.25 KgAi/ha.

What about the Activity (Cyperus serotinus) of the same compound?
The Activity was 0.25 KgAi/ha.

What about the Activity (Echinochloa oryzicola [5]) of the same compound?
The Activity was 70%.

And the Activity (Echinochloa oryzicola [16])?
The Activity was “Active”.

And the Activity (Echinochloa oryzicola [17])?
Its Activity is “Active”.

And the “growth inhibition (GI)” value (Echinochloa oryzicola [18])?
Its value is “Active”.

What about the “growth inhibition (GI)” value (Echinochloa oryzicola [19]) of the same compound?
The value was “Active”.

And the Activity (Echinochloa oryzicola [20])?
Its Activity is “Active”.

And the Activity (Echinochloa oryzicola [21])?
Its Activity is “Active”.

And the Activity (Echinochloa oryzicola [22])?
The Activity was “Active”.

And the Activity (Echinochloa oryzicola [4])?
The Activity was 80%.

What about the Activity (Pontederia vaginalis) of the same compound?
The Activity was 0.25 KgAi/ha.

Which results are given for `CCC1(CCl)SC(N2c3ccccc3OCC2C)=NC1=O` (stereo not given)?
Activity (Oryza sativa): 20%; Activity (Echinochloa oryzicola [5]): 50%; Activity (Echinochloa oryzicola [4]): 100%

With `CN(C1=NC(=O)C(C)(CCCl)S1)c1ccccc1` (stereo not given) as the compound, how does the Activity (Echinochloa oryzicola [1]) read?
Its Activity is 80%.

And the Activity [2]?
Its Activity is 80%.

And the Activity [3]?
The Activity was 90%.

And the Activity (Echinochloa oryzicola [4])?
The Activity was 100%.

What does the source list for `CCC1(CCCl)SC(N2c3ccccc3OCC2C)=NC1=O` (stereo not given)?
Activity (Oryza sativa): 0%; Activity (Echinochloa oryzicola [5]): 60%; Activity (Echinochloa oryzicola [4]): 100%

For `CC1COc2ccccc2N1C1=NC(=O)C(C)(C)S1` (stereo not given), which Activity (Echinochloa oryzicola [1]) is on record?
The Activity was 100%.

And the Activity (Oryza sativa)?
Its Activity is 20%.

And the Activity [2]?
The Activity was 80%.

What about the Activity [3] of the same compound?
Its Activity is 100%.

What about the Activity (Echinochloa oryzicola [5]) of the same compound?
Its Activity is 60%.

And the Activity (Echinochloa oryzicola [4])?
The Activity was 100%.

With `CCC1(CC)SC(N2c3ccccc3OCC2C)=NC1=O` (stereo not given) as the compound, how does the Activity (Oryza sativa) read?
The Activity was 0%.

And the Activity (Echinochloa oryzicola [5])?
Its Activity is 70%.

And the Activity (Echinochloa oryzicola [4])?
The Activity was 100%.

For `CN(Cc1ccccc1)C1=NC(=O)C(C)(C)S1`, which Activity (Echinochloa oryzicola [1]) is on record?
The Activity was 20%.

And the Activity [2]?
The Activity was 0%.

And the Activity [3]?
Its Activity is 40%.

And the Activity (Echinochloa oryzicola [4])?
The Activity was 0%.

Which Activity (Echinochloa oryzicola [1]) does the source give for `CC1(C)SC(N2CCCc3ccccc32)=NC1=O` here?
Its Activity is 90%.

What about the Activity [2] of the same compound?
Its Activity is 60%.

What about the Activity [3] of the same compound?
Its Activity is 90%.

What about the Activity (Echinochloa oryzicola [4]) of the same compound?
Its Activity is 90%.

Which Activity (Echinochloa oryzicola [1]) does the source give for `CCCC1(C)SC(N(C)c2ccccc2)=NC1=O` (stereo not given) here?
The Activity was 80%.

What about the Activity [2] of the same compound?
The Activity was 20%.

And the Activity [3]?
Its Activity is 80%.

And the Activity (Echinochloa oryzicola [4])?
Its Activity is 70%.

Which results are given for `CCCCN(C)C1=NC(=O)C(C)(C)S1`?
Activity (Echinochloa oryzicola [1]): 0%; Activity [2]: 0%; Activity [3]: 0%; Activity (Echinochloa oryzicola [4]): 0%

For `CCN(C1=NC(=O)C(C)(C)S1)c1ccccc1`, which Activity (Echinochloa oryzicola [1]) is on record?
Its Activity is 80%.

What about the Activity [2] of the same compound?
Its Activity is 20%.

And the Activity [3]?
The Activity was 80%.

And the Activity (Echinochloa oryzicola [4])?
The Activity was 60%.

With `CC1(C)SC(N2CCOc3ccccc32)=NC1=O` as the compound, how does the Activity (Echinochloa oryzicola [1]) read?
The Activity was 90%.

What about the Activity [2] of the same compound?
The Activity was 40%.

And the Activity [3]?
The Activity was 80%.

What about the Activity (Echinochloa oryzicola [4]) of the same compound?
Its Activity is 90%.

Which Activity (Oryza sativa) does the source give for `CCC1(C)SC(N2c3ccccc3OCC2C)=NC1=O` (stereo not given) here?
The Activity was 0%.

What about the Activity (Echinochloa oryzicola [5]) of the same compound?
The Activity was 60%.

What about the Activity (Echinochloa oryzicola [4]) of the same compound?
The Activity was 100%.

Which Activity (Echinochloa oryzicola [1]) does the source give for `CN(C1=NC(=O)CS1)c1ccccc1` here?
The Activity was 0%.

And the Activity [2]?
Its Activity is 0%.

What about the Activity [3] of the same compound?
Its Activity is 0%.

What about the Activity (Echinochloa oryzicola [4]) of the same compound?
The Activity was 0%.

Which Activity (Echinochloa oryzicola [1]) does the source give for `CC1(C)SC(Nc2ccccc2)=NC1=O` here?
Its Activity is 80%.

And the Activity [2]?
The Activity was 60%.

What about the Activity [3] of the same compound?
The Activity was 80%.

And the Activity (Echinochloa oryzicola [4])?
Its Activity is 60%.
